Results on 1 compound are retold here after patent publication US20240408114A1, “METHODS FOR PREVENTING AND TREATING ACUTE KIDNEY INJURY” (The Johns Hopkins University, priority 2021, published 2024).

The conditions of series [1]: 1.83 mg/kg every other day i.p.; even with a longer duration of treatment; cited from earlier work.
Series [2] concerns cisplatin-induced AKI in mice. As to the kind of experiment: Cisplatin-induced (nephrotoxic) AKI model: kidney function and histology. The format is in vivo, mouse. As to the method: Given the significant protective outcomes in ischemic AKI, we subsequently tested the effect of glutamine blockade on a nephrotoxic AKI model, which is another common etiology of clinical AKI. After pretreatment with JHU083 or vehicle, 25 mg/kg of cisplatin was injected intraperitoneally. T cells were isolated and studied after 72 h after cisplatin treatment (FIG. 16A).
Cisplatin (cis-diammineplatinum II dichloride; Sigma-Aldrich, St. Louis, MO) was freshly dissolved into 0.9% saline (1 mg/mL) on the day of injection. The dissolved solution was incubated in water bath at 40° C. for 10 min to achieve complete dissolution. A single 25 mg/kg dose of cisplatin was injected intraperitoneally.
Blood samples were obtained at 0, 24, 48, and 72 h after IRI or cisplatin injection through tail vein collection. Plasma creatinine concentration was measured by Cobas Mira Plus automated analyzer system (Roche, Indianapolis, IN) with creatinine reagent (Pointe Scientific Inc, Canton, MI).
At 24 h after IRI and 72 h after cisplatin injection, mice were anesthetized with ketamine (130 mg/kg; VetOne, Boise, ID) and xylazine (7 mg/kg; Akorn) intraperitoneal injection. After exsanguination, kidneys were collected and fixed with 10% buffered formalin followed by paraffin embedding. Tissue sections were stained with hematoxylin and eosin. A renal pathologist scored necrotic tubules in a blinded fashion.
Glutamine antagonist, JHU083 was synthesized as previously described, Rais et al., 2016, and dissolved in 50 mM […] 4-(2-hydroxyethyl)-1-piperazineethanesulfonic acid (HEPES) buffered 0.9% saline. Aliquot stocks were stored at −80° C. and thawed right before injection. Before the IRI surgery or cisplatin injection, mice were administered 1.83 mg/kg JHU083 (equivalent to 1 mg/kg DON) or vehicle (50 mM HEPES buffered 0.9% saline) every other day via intraperitoneal injection. Following 4 consecutive dosages, mice underwent IRI surgery or cisplatin injection. The last additional dose was given at 24 h after IRI or cisplatin injection. […]

The test system of a further series is glutaminase. Description: Glutaminase activity in post-ischemic kidney tissues. Particulars: post-ischemic kidney tissues at 24 h after IRI; JHU083 1.83 mg/kg i.p. every other day; P=0.008. It is filed as in vivo, mouse. As to the method:
To confirm that JHU083 suppressed glutamine-related enzymes in kidneys, glutaminase activities were measured in post-ischemic kidney tissues at 24 h after IRI.
(§1) Glutamine antagonist, JHU083 was synthesized as previously described, Rais et al., 2016, and dissolved in 50 mM […] 4-(2-hydroxyethyl)-1-piperazineethanesulfonic acid (HEPES) buffered 0.9% saline. Aliquot stocks were stored at −80° C. and thawed right before injection. Before the IRI surgery or cisplatin injection, mice were administered 1.83 mg/kg JHU083 (equivalent to 1 mg/kg DON) or vehicle (50 mM HEPES buffered 0.9% saline) every other day via intraperitoneal injection. Following 4 consecutive dosages, mice underwent IRI surgery or cisplatin injection. The last additional dose was given at 24 h after IRI or cisplatin injection. This dosage regimen was chosen based on efficiency and toxicity data from a previous study. Hollinger et al., 2020.
Glutaminase activity measurements in kidney samples were adapted from previously described protocols. Engler et al., 2002. […] [^3H]-Glutamate, the reaction product, was then eluted with 0.1 N HCl and analyzed for radioactivity using Perkin Elmer's TopCount instrument in conjunction with their 96-well LumaPlates. […]

The conditions of series [3]: mouse, in vivo, ip, 1.83 mg/kg. How it is done:
as §1

With `CCOC(=O)[C@H](CCC(=O)C=[N+]=[N-])NC(=O)[C@@H](N)CC(C)C` [JHU083], the “tolerability of dosage regimen” value in series [1] is on record as “tolerable without significant toxicity”. Also, the “plasma creatinine at 72 h” value in series [2] (72 h after cisplatin 25 mg/kg i.p., JHU083 pretreatment, vehicle 2.28±0.34, P=0.016) is 1.17 ± 0.24 mg/dL. Also, the medullary necrotic tubules in series [2] (72 h after cisplatin, vehicle 57.1±3.7, P<0.001) came out at 19.9±4.5%. In addition, the cortical necrotic tubules in series [2] (72 h after cisplatin, vehicle 58.1±4.9, P=0.243) is 20.9±7.0%. In addition, the “glutaminase activities, decrease” value in the series on glutaminase is 29%. Further, in series [3], the body weight entry was “no significant differences between groups”.
